Assay results from patent US20100099917A1, “Integrin modulators and methods for their use” (Billings Pharmaceuticals, Inc., priority 2004, published 2010).

Experiments:
[1] = tested on: HIV-1RF-infected H9 cells; test: Inhibition of HIV-induced syncytium formation (uninfected H9 cells with HIV-1RF-infected H9 cells); type: cell-based; conditions: for IC100 of syncytium formation: H9 + HIV-1RF-infected H9 cells, 6 to 15 hours at 37° C.
Protocol: The purified enantiomers were taken up in DMSO at a concentration of 10 mg/mL. Dilutions were made in RPMI 1640 medium containing 10% fetal calf serum and 10 mM HEPES (cRPMI). H9 cells (ATCC, Rockville, Md.) infected with HIV-1RF (NIH AIDS Repository, Rockville, Md.) and uninfected H9 cells were washed with cRPMI and resuspended in cRPMI at a density of 4×10^6 per mL. Uninfected cells (50 μL) were mixed with serial dilutions of the compounds (100 μL) and incubated at 37° C. for 30 min before adding and mixing 50 μL of infected H9 cells. The plates were incubated at 37° C. for 6 to 15 hours before scoring syncytium formation.
For all the curves, the effect of ajoene enantiomers and enantiomer mixtures on the fusion of cultured, intact H9 cells with HIV-1RF-infected H9 cells is disclosed. The vertical graph axis expresses the maximum amount of syncytia formed in the absence of the compounds (100 percent), while the points on the curves represent percentages of such an amount of syncytia formed in the presence of varying concentrations of the compounds and compound mixtures (micromoles per liter).

VLA-4 = biological target: T1, VLA-4 (Homo sapiens, UniProt P05556+P13612); test: Inhibition of VLA-4-mediated adhesion of HRP-labeled PMI cells to VCAM-1-coated substrata; type: cell-based
T1 construct: VLA-4-mediated adhesion of enzyme-labeled PM1 cells to VCAM-1-coated artificial substrata; host or cells: PM1 (printed 'PMI') cells
T1 sequence (P13612 34-1032): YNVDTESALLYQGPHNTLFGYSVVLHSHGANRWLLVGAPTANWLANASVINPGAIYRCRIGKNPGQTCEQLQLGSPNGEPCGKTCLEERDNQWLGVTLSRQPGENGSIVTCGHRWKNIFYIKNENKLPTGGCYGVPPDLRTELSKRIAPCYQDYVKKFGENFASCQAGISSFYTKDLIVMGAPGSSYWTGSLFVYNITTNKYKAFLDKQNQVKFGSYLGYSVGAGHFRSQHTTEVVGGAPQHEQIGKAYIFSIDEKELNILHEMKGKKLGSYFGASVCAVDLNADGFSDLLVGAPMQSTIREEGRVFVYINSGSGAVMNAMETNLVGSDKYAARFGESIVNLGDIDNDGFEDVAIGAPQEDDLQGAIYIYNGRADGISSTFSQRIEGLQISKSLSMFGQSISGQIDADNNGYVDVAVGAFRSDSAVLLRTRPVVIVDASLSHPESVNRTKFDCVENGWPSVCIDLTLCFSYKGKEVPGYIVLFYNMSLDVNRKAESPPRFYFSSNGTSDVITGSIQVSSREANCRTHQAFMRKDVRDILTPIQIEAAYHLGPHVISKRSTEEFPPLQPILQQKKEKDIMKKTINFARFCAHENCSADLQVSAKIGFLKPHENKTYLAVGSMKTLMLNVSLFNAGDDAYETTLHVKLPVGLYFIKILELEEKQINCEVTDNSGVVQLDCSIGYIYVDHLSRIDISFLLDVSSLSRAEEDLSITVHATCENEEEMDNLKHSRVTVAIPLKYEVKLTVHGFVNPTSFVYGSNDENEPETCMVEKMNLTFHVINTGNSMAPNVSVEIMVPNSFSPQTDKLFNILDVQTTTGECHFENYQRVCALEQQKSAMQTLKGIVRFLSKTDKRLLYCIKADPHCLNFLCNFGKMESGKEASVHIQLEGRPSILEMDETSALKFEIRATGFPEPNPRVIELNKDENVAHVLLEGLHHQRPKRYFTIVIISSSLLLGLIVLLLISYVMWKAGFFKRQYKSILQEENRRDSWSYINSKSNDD
T1 sequence (P05556 21-798): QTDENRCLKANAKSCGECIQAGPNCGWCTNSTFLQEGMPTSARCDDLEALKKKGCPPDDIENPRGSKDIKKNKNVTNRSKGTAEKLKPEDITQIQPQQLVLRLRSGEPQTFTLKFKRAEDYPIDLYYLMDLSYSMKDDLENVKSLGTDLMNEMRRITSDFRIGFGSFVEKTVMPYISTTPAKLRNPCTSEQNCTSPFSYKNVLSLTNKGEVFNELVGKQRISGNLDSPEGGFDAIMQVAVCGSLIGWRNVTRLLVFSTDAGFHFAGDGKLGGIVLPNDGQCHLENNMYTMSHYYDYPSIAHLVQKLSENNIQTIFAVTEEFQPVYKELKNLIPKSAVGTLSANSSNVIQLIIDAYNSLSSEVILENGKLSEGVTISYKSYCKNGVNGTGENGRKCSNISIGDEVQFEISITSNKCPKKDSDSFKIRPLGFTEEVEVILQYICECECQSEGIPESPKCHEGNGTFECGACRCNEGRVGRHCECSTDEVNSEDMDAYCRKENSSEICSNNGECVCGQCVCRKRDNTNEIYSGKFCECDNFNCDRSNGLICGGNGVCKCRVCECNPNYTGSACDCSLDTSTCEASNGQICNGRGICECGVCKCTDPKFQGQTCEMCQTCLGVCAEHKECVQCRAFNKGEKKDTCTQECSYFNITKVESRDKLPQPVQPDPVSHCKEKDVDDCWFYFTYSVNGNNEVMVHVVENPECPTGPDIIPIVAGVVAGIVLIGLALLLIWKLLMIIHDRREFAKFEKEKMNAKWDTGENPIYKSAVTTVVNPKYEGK
Protocol: In addition, the present invention provides methods whereby the integrin-modulating activity of DDCs may be assessed. One such method involves VLA-4-mediated adhesion of enzyme-labeled PM1 cells to VCAM-1-coated artificial substrata. Specifically, the cells are exposed to isolated DDC enantiomers (or the vehicle thereof) and allowed to adhere or not adhere to immobilized VCAM-1. Thereafter, the adherent cells are lysed and, following addition of the substrate of the enzyme and incubation, the activity of the enzyme is measured spectrophotometrically. The value of this parameter, characterizing the number of the adherent cells, is inversely proportional to integrin-modulating activity of the compound. Another such method is based on the inhibition of HIV-mediated syncytium formation, a phenomenon known to depend on integrin-mediated functions. Yet another method is based on the inhibition of cell-to-cell HIV transmission, a process also dependent on integrin-mediated functions. Modulating activity of integrin-mediated functions by the enantiomers was compared in a well-defined system of inhibition of VLA-4-mediated adhesion of enzyme-labeled PMI cells (NIH AIDS Repository, Rockville, Md.) to VCAM-1-coated artificial substrata. […] The reaction was stopped with 0.5 M H2SO4, and the optical density of the wells was read at 450 nm. […]

[2] = tested on: U937 cells infected with HIV-1 RT; test: Inhibition of syncytium formation (MT2 cells with HIV-1 RT-infected U937 cells); type: cell-based; conditions: MT2 + HIV-1 RT-infected U937 cells, 13 hours
[3] = biological target: platelet integrin, GP IIb/IIIa (Homo sapiens, UniProt P05106+P08514); conditions: allosteric inactivation of GP IIb/IIIa; cited from earlier work
platelet integrin, GP IIb/IIIa, sequence (P08514 32-887 limits assumed): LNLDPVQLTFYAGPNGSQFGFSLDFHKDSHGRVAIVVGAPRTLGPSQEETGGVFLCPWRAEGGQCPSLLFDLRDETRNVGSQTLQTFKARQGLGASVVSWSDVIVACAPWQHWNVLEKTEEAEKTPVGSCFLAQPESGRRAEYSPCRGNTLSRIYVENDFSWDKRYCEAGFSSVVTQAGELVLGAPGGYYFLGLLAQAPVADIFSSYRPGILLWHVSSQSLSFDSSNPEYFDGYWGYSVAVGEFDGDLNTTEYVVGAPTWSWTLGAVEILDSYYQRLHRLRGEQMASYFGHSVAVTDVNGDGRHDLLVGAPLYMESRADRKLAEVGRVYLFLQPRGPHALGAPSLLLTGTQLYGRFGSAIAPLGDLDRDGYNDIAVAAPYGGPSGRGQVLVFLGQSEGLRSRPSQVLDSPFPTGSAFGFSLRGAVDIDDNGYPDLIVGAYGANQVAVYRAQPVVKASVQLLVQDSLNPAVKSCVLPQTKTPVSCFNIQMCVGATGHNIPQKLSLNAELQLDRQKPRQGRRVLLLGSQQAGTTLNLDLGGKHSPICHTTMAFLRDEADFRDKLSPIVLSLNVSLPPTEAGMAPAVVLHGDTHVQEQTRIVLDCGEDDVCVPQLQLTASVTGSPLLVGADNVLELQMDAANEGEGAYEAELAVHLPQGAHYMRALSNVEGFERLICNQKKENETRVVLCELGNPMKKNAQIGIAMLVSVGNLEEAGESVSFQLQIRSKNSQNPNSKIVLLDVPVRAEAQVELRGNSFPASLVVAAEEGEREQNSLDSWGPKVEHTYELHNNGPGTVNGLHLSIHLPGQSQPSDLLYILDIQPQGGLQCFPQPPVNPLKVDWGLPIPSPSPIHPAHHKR
platelet integrin, GP IIb/IIIa, sequence (P08514 891-1039 limits assumed): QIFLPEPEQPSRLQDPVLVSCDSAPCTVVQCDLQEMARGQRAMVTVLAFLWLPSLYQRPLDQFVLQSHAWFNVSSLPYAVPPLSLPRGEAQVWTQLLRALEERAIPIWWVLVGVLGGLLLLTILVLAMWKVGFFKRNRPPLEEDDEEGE
platelet integrin, GP IIb/IIIa, sequence (P05106 27-788): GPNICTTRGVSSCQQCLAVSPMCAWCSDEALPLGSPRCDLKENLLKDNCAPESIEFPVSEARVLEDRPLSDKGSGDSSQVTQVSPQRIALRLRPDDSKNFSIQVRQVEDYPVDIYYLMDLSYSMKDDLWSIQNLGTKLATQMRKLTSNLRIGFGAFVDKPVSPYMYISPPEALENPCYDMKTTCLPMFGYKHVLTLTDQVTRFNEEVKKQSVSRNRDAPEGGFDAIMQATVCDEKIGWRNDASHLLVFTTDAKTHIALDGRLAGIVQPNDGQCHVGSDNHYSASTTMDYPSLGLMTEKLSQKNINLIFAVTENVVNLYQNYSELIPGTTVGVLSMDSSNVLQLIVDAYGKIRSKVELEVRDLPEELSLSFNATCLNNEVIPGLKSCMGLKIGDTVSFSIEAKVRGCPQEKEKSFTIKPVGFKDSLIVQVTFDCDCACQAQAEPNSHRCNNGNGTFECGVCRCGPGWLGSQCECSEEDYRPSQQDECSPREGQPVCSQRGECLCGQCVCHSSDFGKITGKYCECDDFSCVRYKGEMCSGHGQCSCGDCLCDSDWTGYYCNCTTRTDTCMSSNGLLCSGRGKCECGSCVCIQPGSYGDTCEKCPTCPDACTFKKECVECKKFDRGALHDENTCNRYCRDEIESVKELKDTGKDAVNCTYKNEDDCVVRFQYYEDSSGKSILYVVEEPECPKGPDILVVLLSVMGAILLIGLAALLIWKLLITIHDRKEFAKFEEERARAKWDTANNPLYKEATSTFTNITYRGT

[4] = tested on: adhesion-dependent processes; conditions: mixtures of E- and Z-isomers; cited from earlier work

Structure (SMILES): C=CCSS/C=C/C[S+]([O-])CC=C (racemic) [racemic (E)-ajoene, reference compound]
- IC100 of syncytium formation [1]: 50 micromoles per liter

Structure (SMILES): C=CCSS/C=C\C[S+]([O-])CC=C (stereo not drawn) [(Z)-(+) counterpart]
- IC100 of syncytium formation [1]: 50 micromoles per liter

Structure (SMILES): C=CCSS/C=C\C[S+]([O-])CC=C (stereo not drawn) [(Z)-(−)-enantiomer, (Z)-(−)-4,5,9-trithiadodeca-1,6,11-triene-9-oxide]
- adhesion-inhibiting activity, fold higher than any other enantiomer of the original 3:1 mixture (VLA-4; PMI cells on VCAM-1, optical density read at 450 nm): 4 fold
- activity compared with the parent racemates (E-, Z-ajoenes and mixtures) (VLA-4; conclusion from Examples 2 and 3 taken together): significantly higher
- IC100 of syncytium formation [1]: 12.5 micromoles per liter
- activity as an integrin modulator relative to other enantiomers, racemic E-ajoene or the unseparated 3:1 mixture ([1]; summary statement in the description, covers Examples 2 and 3): at least four times more active
- activity relative to (Z)-(+) counterpart, racemic (E)-ajoene or the unseparated 3:1 mixture ([1]; syncytium formation, FIG. 1 curves): at least four times more active
- syncytium formation inhibition, result compared with the H9 system [2]: A similar result was obtained

Structure (SMILES): C=CCSS/C=C/C[S+]([O-])CC=C (stereo not shown) [ajoene, 4,5,9-trithiadodeca-1,6,11-triene-9-oxide]
- effect on platelet aggregation [3]: inhibit platelet aggregation
- inhibition of adhesion-dependent processes [4]: potent inhibitor
